In brackets after ≈: the same amount, converted by molar mass.
Tests used:
[1] = UCSD infection assay, host cell cytotoxicity (CC50); type: cell-based; conditions: mouse, B10R host cells infected with L. donovani; host B10R cells
Experimental: (§1) Assay Conditions D: B10R cells (CVCL_0155) were seeded at 300 cells/well, and L. donovani WT promastigotes in stationary phase (7th day after passage) were added at 6,000 parasites/well (ratio of 20 parasites/cell). Both cells and parasites were seeded in DMEM High-Glucose medium (Gibco, cat. no. 11995065) containing 5% Fetal Bovine Serum (Sigma-Aldrich, cat. no. F2442) and 1% Penicillin-Streptomycin (Gibco, cat. no. 15140122). Cells and parasites were incubated in the presence of the compounds for 72 h at 37° C. and 5% C02. Plates were then fixed with 4% formaldehyde solution for at least 1 h, then washed with 1×PBS and stained with 5 μg/mL DAPI. Plates were read using an ImageXpress microscope (Molecular Devices) and analyzed by MetaXpress software (Molecular Devices) using a custom module optimized for this assay. […] Compounds were tested in a 10-point 2-fold serial dilution in 3 technical replicates, and 2 biological replicates. After 72 h, plates were fixed and stained with DAPI as described above. Images were acquired on an ImageXpress microscope, and analyzed using the MetaXpress custom module.
as §1, with “Compounds were obtained as 0.2 μmoles of dried film for primary single point screening. Each compound was diluted in DMSO to 10 μM final testing concentration. These compounds were tested in 2 biological replicates. The compounds were pre-spotted onto 384-well assay plates in single concentration.” for “Assay Conditions D:”, “CO2.” for “C02.”, “module. The DRCs were plotted, half-effective concentration (EC50) and half-cytotoxic concentration (CC50) were calculated using GraphPad Prism Software, version 6.05 (GraphPad Software, San Diego, CA).” for “module.”

[2] = test system: L. donovani intracellular amastigotes in B10R cells; test: UCSD L. donovani infection assay (Assay Conditions D); type: cell-based; conditions: for IC50: Leishmania donovani
Method in brief: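 B10R cells (300/well) infected with stationary-phase L. donovani WT promastigotes at 20 parasites/cell in DMEM high-glucose, 5% FBS, with compounds 72 h at 37° C., 5% CO2. Formaldehyde-fixed, DAPI-stained, imaged by high-content microscopy; 10-point 2-fold dilutions (screen at 10 μM) gave EC50 and host CC50.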

[3] = test system: HepG2 cells; test: HepG2 cytotoxicity; type: cell-based; conditions: Homo sapiens; toxicity against HepG2 cells
[4] = Artificial membrane permeability (AMP); type: in vitro ADME; conditions: PAMPA, pH 7.4
Method in brief: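 Passive permeation through 1.8% phosphatidylcholine in 1% decane membrane, 50 mM phosphate buffer pH 7.4 on donor and receiver sides. After 45 min pre-shaking, compounds incubated 3 h at room temperature with shaking, in duplicate; donor and receiver solutions quantified by LC/MS.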

[5] = test system: host THP-1 macrophages; test: GSK inMac assay, host cell toxicity readout (LD MAC); type: cell-based, human; conditions: Homo sapiens, THP-1, cytotoxicity against host THP-1 macrophages
Method in brief: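 Intramacrophage L. donovani assay in THP-1 macrophages; host toxicity taken from host cell number per well, giving MAC EC50. Run alongside amastigote-per-cell and infected-cell readouts in the same wells.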

[6] = Kinetic aqueous solubility by CLND; type: physicochemical; conditions: kinetic from dmso stock, high-throughput CLND
Experimental: Solubility of compounds using ChemiLuminescent Nitrogen Detection (CLND) was measured as described. Solubility of compounds using Charged Aerosol Detection (CAD) was measured as described. Solubility of solid compounds in Fasted Simulated Intestinal Fluid (FaSSIF) was measured as described.

[7] = Property forecast index (PFI = ChromLogD7.4 + aromatic rings); type: physicochemical
[8] = target: human serum albumin (Homo sapiens, UniProt P02768); test: Human serum albumin (HSA) binding, chromatographic; type: in vitro ADME
human serum albumin, sequence (P02768 25-609): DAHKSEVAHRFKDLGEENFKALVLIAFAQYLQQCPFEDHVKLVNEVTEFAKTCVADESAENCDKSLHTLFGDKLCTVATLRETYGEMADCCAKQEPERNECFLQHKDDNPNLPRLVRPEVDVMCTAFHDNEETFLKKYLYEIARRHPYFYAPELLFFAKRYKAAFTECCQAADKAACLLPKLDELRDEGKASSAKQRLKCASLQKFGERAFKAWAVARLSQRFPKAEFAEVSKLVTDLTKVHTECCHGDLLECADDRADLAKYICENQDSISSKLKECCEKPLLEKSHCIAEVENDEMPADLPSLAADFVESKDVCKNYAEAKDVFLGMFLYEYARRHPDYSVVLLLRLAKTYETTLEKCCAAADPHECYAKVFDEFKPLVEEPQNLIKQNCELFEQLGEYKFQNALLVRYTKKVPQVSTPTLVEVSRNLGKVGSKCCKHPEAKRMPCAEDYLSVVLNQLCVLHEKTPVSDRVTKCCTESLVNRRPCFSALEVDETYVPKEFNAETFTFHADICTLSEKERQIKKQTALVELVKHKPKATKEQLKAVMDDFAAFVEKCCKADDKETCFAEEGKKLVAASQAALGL
Experimental: The percentage of compound bound to human serum albumin was measured using a chromatographic method as described. Briefly, each compound was assayed on an immobilized HSA column and gradient retention times measured, with chromatographic peak detection by UV. Each retention time was then converted to a % HSA bound value using a calibration set of compounds with a known % HSA binding.

[9] = test system: L. donovani intracellular amastigotes infecting THP-1 macrophages; test: GSK intramacrophage L. donovani assay (LD AMMAC, inMac; Assay Conditions C); type: cell-based; conditions: Leishmania donovani; for IC50: THP-1; for EC50: growth inhibition of L. donovani intracellular amastigotes infecting THP-1 macrophages, read-out: LD AMMAC EC50
Method in brief: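 L. donovani amastigotes within THP-1 macrophages; EC50 based on average intracellular amastigotes per infected cell (AMMAC). Infected-cell percentage (INFCELL) and host-cell number (MAC) also read, the latter as toxicity output.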

SMILES	CC50 at 72 h [1]	L. donovani amastigotes EC75 (μM, B10R cells) [2]	other results
CC(C)Cc1n[nH]c2c1C(c1ccccc1F)N(c1cncc(F)c1)C2=O (stereo not drawn) [BUCMD00700]	10 µM	1.3 µM	–
CC(C)Cc1n[nH]c2c1C(c1ccc(F)cc1Cl)N(c1ccc(N3CCN(C)CC3)nc1)C2=O (stereo not drawn) [BUCMD00718]	6.31 µM	1.0 µM	–
CC(C)Cc1n[nH]c2c1C(c1ccc(F)cc1Cl)N(c1ccc(C(=O)N3CCCC3)cc1)C2=O (stereo not drawn) [BUCMD00711]	5.01 µM	>10 µM	–
C#CCCCCn1nc(CC(C)C)c2c1C(=O)N(c1ccc(OC)cc1)C2c1ccc(F)cc1 (stereo not drawn) [BUCMD00741]	10 µM	>10 µM	–
COc1ccc(N2C(=O)c3[nH]nc(CC(C)C)c3C2c2ccc(Br)cc2F)nc1 (stereo not drawn) [BUCMD00648]	3.98 µM	>10 µM	–
Cc1ccc(N2C(=O)c3[nH]nc(CC(C)C)c3C2c2ccccc2Cl)cn1 (stereo not drawn) [BUCMD00640]	12.6 µM	3.4 µM	–
CC(C)Cc1n[nH]c2c1C(c1ccc(F)cc1F)N(c1ccc(C(=O)N3CCCC3)cc1)C2=O (stereo not drawn) [BUCMD00714]	10 µM	>10 µM	–
Cc1ccccc1C1c2c(CC(C)C)n[nH]c2C(=O)N1c1ccc(C(=O)N2CCCC2)cc1 (stereo not drawn) [BUCMD00713]	10 µM	>10 µM	–
Cc1ccc(N2C(=O)c3[nH]nc(CC(C)C)c3C2c2ccccc2C)cn1 (stereo not drawn) [BUCMD00628]	15.8 µM	3.2 µM	–
CC(C)Cc1n[nH]c2c1C(c1ccc(F)cc1)N(c1ccc3c(c1)OCCO3)C2=O (stereo not drawn) [Compound 45]	–	–	EC50 [3]: > 50 µM; Papp at 3 h [4]: 51 ×10⁻⁶ cm/s; EC50 [5]: 25.1 µM; solubility ([6]; aqueous medium): 50 µM (≈ 20.4 µg/mL); PFI [7]: 8.4; IC50 [2]: 0.9 µM; HSA Binding [8]: 96.2%; IC50 [9]: 3.2 µM; EC50 [9]: 3.2 µM
CC(C)Cc1n[nH]c2c1C(c1ccc(F)c(F)c1)N(c1ccc(N3CCN(C)CC3)nc1)C2=O (stereo not drawn) [BUCMD00725]	7.94 µM	>10 µM	–
COc1ccc(N2C(=O)c3[nH]nc(CC(C)C)c3C2c2ccsc2)cc1 (stereo not drawn) [Compound S3]	–	–	EC50 [3]: > 100 µM; Papp at 3 h [4]: 47 ×10⁻⁶ cm/s; EC50 [5]: > 50 µM; solubility ([6]; aqueous medium (not further specified)): 149 µM (≈ 54.8 µg/mL); PFI [7]: 8.3; IC50 [2]: 4 µM; HSA Binding [8]: 95.4%; IC50 [9]: 6.3 µM; EC50 [9]: 6.3 µM
Cc1ccc(N2C(=O)c3[nH]nc(CC(C)C)c3C2c2ccc(Cl)cc2F)cn1 (stereo not drawn) [BUCMD00627]	10 µM	>10 µM	–
CC(C)Cc1n[nH]c2c1C(c1ccc(Cl)cc1Cl)N(c1ccc(N3CCN(C)CC3)nc1)C2=O (stereo not drawn) [BUCMD00719]	2 µM	>10 µM	–
